These results are taken from patent publication US5270325A, “P-hydroxy phenone derivatives used in the treatment of cardiac arrhythmia” (BASF Aktiengesellschaft, priority 1988, dated 1993).

One assay deals with QT interval. The assay can be described thus: Class III antiarrhythmic action in guinea-pigs after intravenous administration (increase in the QT interval, ECG). The following applies: Cavia porcellus, anesthetized (urethane) guinea-pigs, ED 20% from linear relation between log dose and relative increase in the QT interval. Type of assay: in vivo, Pirbright white guinea-pigs. As to the method:
The experimental animals are male and female Pirbright white guinea-pigs weighing from 300 to 500 g. They are anesthetized with 1.5 g/kg urethane i.p. The substances are administered intravenously. The ECG conduction times and the heart rate are measured from a recording from extremity lead II. The measured variables are the QT and PQ intervals and the heart rate. 4 to 6 animals are used per dose. The criterion of a class III action is an increase in the QT interval compared with the values before administration of the substance. An increase in PQ and a large decrease in the heart rate serve as exclusion criteria. The ED 20% is calculated from the linear relation between log dose (mg/kg) of the substance and the relative increase in the QT interval (in %).

For a further assay, the system named is arrhythmias. Particulars: literature: Circulation 68 (1983) 88-94; Am. Heart J. 109 (1985) 949-958; J. Clin. Pharmacol. 27 (1987) 708; cited from earlier work.

Take `CC(C)NCC(O)c1ccc(NS(C)(=O)=O)cc1` (single isomer, unassigned) [D-Sotalol]: the ED (20%) with QT interval was 3.6 mg/kg. For the same molecule, the “acting against arrhythmias which are otherwise resistant to therapy” value in the assay with arrhythmias is listed as “acting against arrhythmias which are otherwise resistant to therapy, especially reentry arrhythmias”.

Turning to `Cc1cc(C(=O)/C=C/c2cccn2C)cc(C)c1OCCN1CCCC1.O=C(O)/C=C/C(=O)O` [Example 2, 3,5-Dimethyl-4-[2-(1-pyrrolidinyl)ethoxy]phenyl E-2-(1-methyl-2-pyrrolyl)ethenyl ketone fumarate], the ED (20%) in the assay with QT interval was found to be 1.1 mg/kg.

`Cc1ccsc1/C=C/C(=O)c1cc(C)c(OCCN2CCCC2)c(C)c1.O=C(O)/C=C/C(=O)O` [Example 4, 3,5-Dimethyl-4-[2-(1-pyrrolidinyl)ethoxy]phenyl E-2-(3-methyl-2-thienyl)ethenyl ketone fumarate] showed an ED (20%) in the assay with QT interval of 1.2 mg/kg.

Regarding `Cc1cc(C(=O)/C=C/c2ccccc2C(F)(F)F)cc(C)c1OCCN1CCCC1.O=C(O)/C=C/C(=O)O` [Example 5, 3',5'-Dimethyl-4'-[2-(1-pyrrolidinyl)ethoxy]-2-trifluoromethylchalcone fumarate], in the assay with QT interval, the ED (20%) turned out to be 1 mg/kg.

As to `CCCCc1oc2ccccc2c1C(=O)c1cc(I)c(OCCN(CC)CC)c(I)c1` [amiodarone], in the assay with arrhythmias, the “acting against arrhythmias which are otherwise resistant to therapy” value is listed as “acting against arrhythmias which are otherwise resistant to therapy, especially reentry arrhythmias”.
